# Patent publication US6737383B1, “Herbicidal oxadiazolidines” (priority 1999, dated 2004)
# Columns and labels:
# crabgrass = assay: Test B pre/postemergence crabgrass; assay type: in vivo, Digitaria sanguinalis
# How it was run: (§1)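 Response is a visual 0-to-10 score relative to untreated plants, where 0 means no effect and 10 means complete control, taken twelve to sixteen days after application. Treatments went onto soil at planting and onto foliage of 1- to 4-leaf plants, using a surfactant-containing non-phytotoxic solvent.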
# bamyardgrass = assay: Test B flood test barnyardgrass; assay type: in vivo, Echinochloa crus-galli
# How it was run: (§2)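 Read-out is a visual response score from 0 (no effect) to 10 (complete control), assigned by comparison with untreated controls. Treatment was applied at the 2-leaf stage, and plants stayed in the greenhouse for twelve to sixteen days before scoring.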
# soybean = assay: Test B pre/postemergence soybean; assay type: in vivo, Glycine max
# How it was run: as §1
# rape = assay: Test B pre/postemergence rape; assay type: in vivo, Brassica napus
# How it was run: as §1
# corn = assay: Test B pre/postemergence corn; assay type: in vivo, Zea mays
# How it was run: as §1
# sugar beet = assay: Test B pre/postemergence sugar beet; assay type: in vivo, Beta vulgaris
# How it was run: as §1
# wild oat = assay: Test B pre/postemergence wild oat; assay type: in vivo, Avena fatua
# How it was run: as §1
# cocklebur = assay: Test B pre/postemergence cocklebur; assay type: in vivo, Xanthium strumarium
# How it was run: as §1
# smallflower flatsedge = assay: Test B flood test smallflower flatsedge; assay type: in vivo, Cyperus difformis
# How it was run: as §2
# surinam grass = assay: Test B pre/postemergence surinam grass; assay type: in vivo, Brachiaria decumbens
# How it was run: as §1
# blackgrass = assay: Test B pre/postemergence blackgrass; assay type: in vivo, Alopecurus myosuroides
# How it was run: as §1
# purple nutsedge = assay: Test B pre/postemergence purple nutsedge; assay type: in vivo, Cyperus rotundus
# How it was run: as §1
# pigweed = assay: Test B pre/postemergence pigweed; assay type: in vivo, Amaranthus retroflexus
# How it was run: as §1
# morningglory = assay: Test B pre/postemergence morningglory; assay type: in vivo, Ipomoea hederacea
# How it was run: as §1
# giant foxtail = assay: Test B pre/postemergence giant foxtail; assay type: in vivo, Setaria faberii
# How it was run: as §1
# velvetleaf = assay: Test B pre/postemergence velvetleaf; assay type: in vivo, Abutilon theophrasti
# How it was run: as §1
# [1] = Postemergence, Rate 62 g/ha, scale 0 to 10, 0 is no effect, 10 is complete control
# [2] = Postemergence, Rate 250 g/ha, scale 0 to 10, 0 no effect, 10 complete control
# [3] = Preemergence, Rate 62 g/ha, scale 0 to 10 (0 no effect, 10 complete control)
# [4] = Preemergence, Rate 125 g/ha, scale 0 to 10 (0 no effect, 10 complete control)
# [5] = Preemergence, Rate 250 g/ha, scale of 0 to 10 where 0 is no effect and 10 is complete control
# [6] = Preemergence, Rate 500 g/ha, scale 0 (no effect) to 10 (complete control)
# [7] = Rate 125 g/ha, Postemergence, scale 0 to 10, 0 no effect, 10 complete control
# [8] = Rate 500 g/ha, Postemergence, scale 0 to 10, 0 no effect, 10 complete control
# [9] = Rate 125 g/ha, Postemergence section (flood test species), scale 0 to 10, 0 no effect, 10 complete control
# [10] = Rate 500 g/ha, listed under Postemergence (flood test species), scale 0 to 10, 0 no effect, 10 complete control
# [11] = flood test, listed under Postemergence, Rate 250 g/ha, scale 0 to 10, 0 no effect, 10 complete control
compound,measurement,setting,value
Cc1cc(C)c(-n2c(=O)on(C(=O)N(c3ccc(Cl)cc3)C(C)C)c2=O)c(C)c1 [Compound 61],Crabgrass plant response rating,crabgrass; [1],0
same,Crabgrass plant response rating,crabgrass; [2],0
same,Crabgrass plant response rating,crabgrass; [3],0
same,"Plant response rating, Crabgrass",crabgrass; [4],4
same,"Plant response rating, Crabgrass",crabgrass; [5],7
same,Crabgrass plant response rating,crabgrass; [6],8
same,Crabgrass plant response rating,crabgrass; [7],0
same,Crabgrass plant response rating,crabgrass; [8],0
same,Barnyardgrass plant response rating,bamyardgrass; [1],0
same,Barnyardgrass plant response rating,bamyardgrass; [9],0
same,Barnyardgrass plant response rating,bamyardgrass; [10],0
same,Barnyardgrass plant response rating,bamyardgrass; [11],0
same,Soybean plant response rating,soybean; [1],1
same,Soybean plant response rating,soybean; [2],4
same,Soybean plant response rating,soybean; [3],0
same,"Plant response rating, Soybean",soybean; [4],0
same,"Plant response rating, Soybean",soybean; [5],0
same,Soybean plant response rating,soybean; [6],0
same,Soybean plant response rating,soybean; [7],3
same,Soybean plant response rating,soybean; [8],5
same,Rape plant response rating,rape; [1],0
same,Rape plant response rating,rape; [2],0
same,Rape plant response rating,rape; [3],0
same,"Plant response rating, Rape",rape; [4],0
same,"Plant response rating, Rape",rape; [5],0
same,Rape plant response rating,rape; [6],0
same,Rape plant response rating,rape; [7],0
same,Rape plant response rating,rape; [8],3
same,Corn plant response rating,corn; [1],0
same,Corn plant response rating,corn; [2],0
same,Corn plant response rating,corn; [3],0
same,"Plant response rating, Corn",corn; [4],0
same,"Plant response rating, Corn",corn; [5],0
same,Corn plant response rating,corn; [6],0
same,Corn plant response rating,corn; [7],0
same,Corn plant response rating,corn; [8],0
same,Sugarbeets plant response rating,sugar beet; [1],0
same,Sugarbeets plant response rating,sugar beet; [2],2
same,Sugarbeets plant response rating,sugar beet; [3],0
same,"Plant response rating, Sugarbeets",sugar beet; [4],0
same,"Plant response rating, Sugarbeets",sugar beet; [5],5
same,Sugarbeets plant response rating,sugar beet; [6],6
same,Sugarbeets plant response rating,sugar beet; [7],2
same,Sugarbeets plant response rating,sugar beet; [8],6
same,Wild oats plant response rating,wild oat; [1],0
same,Wild oats plant response rating,wild oat; [2],0
same,Wild oats plant response rating,wild oat; [3],0
same,"Plant response rating, Wild oats",wild oat; [4],0
same,"Plant response rating, Wild oats",wild oat; [5],0
same,Wild oats plant response rating,wild oat; [6],3
same,Wild oats plant response rating,wild oat; [7],0
same,Wild oats plant response rating,wild oat; [8],0
same,Cocklebur plant response rating,cocklebur; [1],0
same,Cocklebur plant response rating,cocklebur; [2],0
same,Cocklebur plant response rating,cocklebur; [3],0
same,"Plant response rating, Cocklebur",cocklebur; [4],0
same,"Plant response rating, Cocklebur",cocklebur; [5],0
same,Cocklebur plant response rating,cocklebur; [6],0
same,Cocklebur plant response rating,cocklebur; [7],0
same,Cocklebur plant response rating,cocklebur; [8],1
same,S. Flatsedge plant response rating,smallflower flatsedge; [1],0
same,S. Flatsedge plant response rating,smallflower flatsedge; [9],0
same,S. Flatsedge plant response rating,smallflower flatsedge; [10],0
same,S. Flatsedge plant response rating,smallflower flatsedge; [11],0
same,B. signalgrass plant response rating,surinam grass; [1],0
same,B. signalgrass plant response rating,surinam grass; [2],0
same,B. signalgrass plant response rating,surinam grass; [3],0
same,"Plant response rating, B. signalgrass",surinam grass; [4],1
same,"Plant response rating, B. signalgrass",surinam grass; [5],5
same,B. signalgrass plant response rating,surinam grass; [6],5
same,B. signalgrass plant response rating,surinam grass; [7],0
same,B. signalgrass plant response rating,"surinam grass; Rate 500 g/ha, Postemergence, scale of 0 to 10 where 0 is no effect and 10 is complete control",1
same,Blackgrass plant response rating,blackgrass; [1],0
same,Blackgrass plant response rating,blackgrass; [2],6
same,Blackgrass plant response rating,blackgrass; [3],0
same,"Plant response rating, Blackgrass",blackgrass; [4],0
same,"Plant response rating, Blackgrass",blackgrass; [5],5
same,Blackgrass plant response rating,blackgrass; [6],6
same,Blackgrass plant response rating,blackgrass; [7],3
same,Blackgrass plant response rating,blackgrass; [8],7
same,Nutsedge plant response rating,purple nutsedge; [1],0
same,Nutsedge plant response rating,purple nutsedge; [2],0
same,Nutsedge plant response rating,purple nutsedge; [3],0
same,"Plant response rating, Nutsedge",purple nutsedge; [4],0
same,"Plant response rating, Nutsedge",purple nutsedge; [5],0
same,Nutsedge plant response rating,purple nutsedge; [6],0
same,Nutsedge plant response rating,purple nutsedge; [7],0
same,Nutsedge plant response rating,purple nutsedge; [8],0
same,Redroot pigweed plant response rating,pigweed; [1],1
same,Redroot pigweed plant response rating,pigweed; [2],3
same,Redroot pigweed plant response rating,pigweed; [3],0
same,"Plant response rating, Redroot pigweed",pigweed; [4],0
same,"Plant response rating, Redroot pigweed",pigweed; [5],1
same,Redroot pigweed plant response rating,pigweed; [6],3
same,Redroot pigweed plant response rating,pigweed; [7],2
same,Redroot pigweed plant response rating,pigweed; [8],4
same,Morningglory plant response rating,morningglory; [1],2
same,Morningglory plant response rating,morningglory; [2],4
same,Morningglory plant response rating,morningglory; [3],0
same,"Plant response rating, Morningglory",morningglory; [4],0
same,"Plant response rating, Morningglory",morningglory; [5],0
same,Morningglory plant response rating,morningglory; [6],0
same,Morningglory plant response rating,morningglory; [7],2
same,Morningglory plant response rating,morningglory; [8],8
same,Giant foxtail plant response rating,giant foxtail; [1],0
same,Giant foxtail plant response rating,giant foxtail; [2],0
same,Giant foxtail plant response rating,giant foxtail; [3],3
same,"Plant response rating, Giant foxtail",giant foxtail; [4],7
same,"Plant response rating, Giant foxtail",giant foxtail; [5],9
same,Giant foxtail plant response rating,giant foxtail; [6],10
same,Giant foxtail plant response rating,giant foxtail; [7],0
same,Giant foxtail plant response rating,giant foxtail; [8],0
same,Velvetleaf plant response rating,velvetleaf; [1],0
same,Velvetleaf plant response rating,velvetleaf; [2],0
same,Velvetleaf plant response rating,velvetleaf; [3],0
same,"Plant response rating, Velvetleaf",velvetleaf; [4],0
same,"Plant response rating, Velvetleaf",velvetleaf; [5],0
same,Velvetleaf plant response rating,velvetleaf; [6],0
same,Velvetleaf plant response rating,velvetleaf; [7],0
same,Velvetleaf plant response rating,velvetleaf; [8],0
